These results are taken from US5283246A, “Trimetazidine compounds” (Adir et Compagnie, priority 1991, dated 1994).

The subject of assay [1] is cardiac cells. Nature of the assay: Oxidative necrosis of cardiac cells induced by hypoxanthine/xanthine-oxidase (XO + HX). As to conditions: Rattus norvegicus, 4 h; for activity at 10 µM: 10^-5 M, read-out: necrosis index of cardiac cells, XO + HX, compound 10^-5 M; for activity at 10 µM / activity at 1 µM / activity at 0.1 µM: XO + HX, control XO + HX = 100.0; for activity at 1 µM: 10^-6 M, read-out: necrosis index of cardiac cells, XO + HX, compound 10^-6 M; for activity at 0.1 µM: 10^-7 M, read-out: necrosis index of cardiac cells, XO + HX, compound 10^-7 M; for minimal effective concentration: XO + HX induced oxidative necrosis, read-out: concentration at which compounds prove to be protective against necrosis. The format is cell-based, rat (newborn). As to the method: The cardiac cells of newborn rats are used between the 5th and 6th days after placing in culture. Oxidative necrosis is induced by the free radical-producing enzymatic system hypoxanthine (HX, 1 -mm) and xanthineoxidase (XO, 10 mU/ml). The necrosis is evaluated 4 hours after the addition of XO/HX by measuring by spectrophotometry the cytosolic α-hydroxybutyrate dehydrogenase (a-HBDH) activity liberated in the supernatant. The cells are treated with the test compounds 16 hours and 1 hour before the beginning of the experiment after renewing the medium. At the beginning of the experiment, the treatment is carried out again one last time.
Table 3 lists the necrosis indices of cardiac cells induced by the hypoxanthine/xanthine-oxidase system alone or in the presence of increasing concentrations of the compounds of the invention.

The subject of assay [2] is human LDLs. Nature of the assay: Modification of human LDLs by copper sulphate (lipid peroxidation, MDA production). The format is biochemical. The conditions noted are these: copper sulphate 5×10^-6 M, 24 hours; read-out: IC50, inhibition of copper-induced modification (MDA production) of human LDLs. As to the method:
Human LDLs are incubated for 24 hours in the presence of copper sulphate (5×10^-6 M) and in the absence or presence of the compounds tested (10^-7 M to 10^-4 M). After incubation, the peroxidation of the LDLs is evaluated by electrophoresis on agar gel and by the formation of one of the products of lipid peroxidation malonic dialdehyde (MDA), (Parthasarathy S., Young S. G., Witztum J. L., Pittman R. C. and Steinberg, D.; J. Clin. invest. 77; 641-644, 1986).
The activity of the tested compounds is evaluated by calculating those concentrations (IC50) that reduce the production of MDA by 50% compared with control experiments in the absence of the tested compound.

For assay [3], the system named is isolated hearts of rats. Nature of the assay: Hypoxia reoxygenation on the isolated heart of a rat. Set-up: species or system Wistar rat. As to conditions: for functional recovery of the hearts during reoxygenation / reduction of the developing contracture at the end of 30 minutes reoxygenation: Example 1 at 3×10^-7 M, 10 at 10^-7 M, 13 at 7×10^-7 M; for functional recovery of the hearts during reoxygenation: 40% in the control experiments; for reduction of the developing contracture at the end of 30 minutes reoxygenation: vs control; for Contracture, hypoxia 10 min / Contracture, hypoxia 30 min / Contracture, hypoxia 60 min / Contracture, reoxygenation 15 min / Contracture, reoxygenation 30 min: Example 1 at 3 × 10^-7 M, Example 10 at 10^-7 M, Example 13 at 7 × 10^-7 M; for Contracture, hypoxia 10 min: control 23.7 ± 6.8; for Contracture, hypoxia 30 min: control 33.7 ± 8.9; for Contracture, hypoxia 60 min: control 32.3 ± 7.4; for Contracture, reoxygenation 15 min: control 20.6 ± 7.8; for Contracture, reoxygenation 30 min: control 12.3 ± 6.1. As to the method:
The hearts of male Wistar rats (325-375 g--Charles River breed) anaesthetized by the intraperitoneal route with sodium pentobarbital (30 mg/kg) are removed after the injection of heparin i.v. (1 ml/kg) and rapidly perfused by the Langendorff technique at a constant pressure of 76 mmhg and stimulated electrically at 5 Hz. The isovolumetric contractions are recorded by way of a small polyethylene balloon connected to a pressure sensor (P23-Gould) introduced into the left ventricle and inflated so as to obtain a diastolic pressure of approximately 10 mmhg. The physiological solution used, maintained at 37° C., has the following composition (mM): NaCl 118; KCl 4.7; KH2 PO4 1.2; MgCl2 1.2; CaCl2 1.3; NaHCO3 25; glucose 8, pH 7.4/95% O2 +5% CO2.
After a period of stabilization of from 15 to 30 minutes, the heart is subjected to hypoxia for 60 minutes (effected with 95% N2 and 5% CO2; PO2 <40 mmHg), followed by reoxygenation for 30 minutes; the compound is added to the incubation medium 15 minutes before and during the period of hypoxia.

Assay [4] relates to rat aorta. Briefly: Study on isolated vessels: vascular relaxing effect on a rat aorta contracted by potassium (80 mM). Also on record: species or system Wistar rat. As to conditions: rat aorta rings without endothelium contracted by potassium (80 mM). The protocol:
The thoracic aorta of Wistar rats (325-375 g) that have been anaesthetized by the intraperitoneal route with sodium pentobarbital (30 mg/kg) is removed and dissected into rings 3 mm in length; the endothelium is removed by gentle abrasion using a piece of wood. Each ring is connected to a Statham pressure sensor (UC2-Gould). The initial pressure applied is 2.5 g. The physiological solution used, maintained at 37° C., has the following composition (mM): NaCl 112; KCl 5; KH2 PO4 1; MgSO4 1.2; CaCl2 2.5; NaHCO3 25; glucose 11.; EDTA 0.026. After a stabilization period of 90 minutes, the aorta rings are subjected to a hyperpotassic medium (80 MM KCl and 37 mM NaCl). When the contraction is stable, cumulative concentrations of compound are added to the medium every 15 minutes. The relaxation values obtained enable calculation of the IC50.

The IC50 is the point on the concentration scale where inhibition reaches its midpoint. Consider `COc1ccc(CN2CCN(CCCCCSc3cc(C(C)(C)C)c(O)c(C(C)(C)C)c3)CC2)c(OC)c1OC` [Example 9, 4-(2,3,4-trimethoxybenzyl)-l-[5-(4-hydroxy-3,5-di-tert.-butylphenylthio)pentyl]piperazine], for which, in assay [1], the activity at 10 µM was 33.3 ± 6.6%, the activity at 1 µM came to 15.2 ± 2%, the activity at 0.1 µM was found to be 53 ± 5.5% and the minimal effective concentration is not below 0.1 µM. Besides, the IC50 in assay [2] turned out to be 80 nM.
On to `COc1ccc(CN2CCN(CC(O)CSc3cc(C)c(O)c(C)c3C)CC2)c(OC)c1OC` (stereo not drawn) [Example 13, 4-(2,3,4-trimethoxybenzyl)-l-[3-(4-hydroxy-2,3,5-trimethylphenylthio)-2-hydroxypropyl)piperazine], for which, in assay [3], the “functional recovery of the hearts during reoxygenation” value is “more than 70%”; the “reduction of the developing contracture at the end of 30 minutes reoxygenation” value was “more than 70%”; the “Contracture, hypoxia 10 min” value worked out at 11.0 ± 4.4 mm Hg; the “Contracture, hypoxia 30 min” value is reported as 15.0 ± 6.1 mm Hg. In addition, in assay [3], the “Contracture, hypoxia 60 min” value came out at 13.5 ± 6.3 mm Hg; the “Contracture, reoxygenation 15 min” value stood at 6.0 ± 6.0 mm Hg; the “Contracture, reoxygenation 30 min” value is 3.5 ± 3.5 mm Hg. For the same compound, in assay [1], the activity at 10 µM turned out to be 15.1 ± 0.6%, the activity at 1 µM was 64.7 ± 0.4% and the activity at 0.1 µM amounted to 100 ± 4.8%. This compound displayed an IC50 in assay [4] of 4300 nM. In addition, the IC50 in assay [2] worked out at 70 nM.
With `COc1ccc(CN2CCN(CC(C)(C)CSc3cc(C(C)(C)C)c(O)c(C(C)(C)C)c3)CC2)c(OC)c1OC` [Example 12, 4-(2,3,4-trimethoxybenzyl)-l-[3-(4-hydroxy-3,5-di-tert.-butylphenylthio)-2,2-dimethylpropyl]piperazine], the IC50 in assay [2] was 800 nM.
Consider `COc1ccc(CN2CCN(CC(O)COc3cc(C)c(O)c(C)c3C)CC2)c(OC)c1OC` (stereo not drawn) [Example 11, 4-(2,3,4-trimethoxybenzyl)-l-[3-(4-hydroxy-2,3,5-trimethylphenoxy)-2-hydroxypropyl]piperazine], for which, in assay [1], the activity at 10 µM turned out to be 18 ± 2.9%, the activity at 1 µM turned out to be 70.9 ± 8.3% and the activity at 0.1 µM came to 114 ± 5.2%. The IC50 in assay [2] was found to be 600 nM.
Take `COc1ccc(CN2CCN(CCCOc3cc(C)c(O)c(C)c3C)CC2)c(OC)c1OC` [Example 1, 4-(2,3,4-trimethoxybenzyl)-1-[3-(4-hydroxy-2,3,5-trimethylphenoxy)propyl]piperazine]: in assay [3], the “functional recovery of the hearts during reoxygenation” value is recorded as “more than 70%”; the “reduction of the developing contracture at the end of 30 minutes reoxygenation” value is reported as “more than 70%”; the “Contracture, hypoxia 10 min” value was determined as 21.0 ± 5.8 mm Hg; the “Contracture, hypoxia 30 min” value came to 22.5 ± 2.5 mm Hg. In assay [3], the “Contracture, hypoxia 60 min” value amounted to 21.0 ± 3.9 mm Hg; the “Contracture, reoxygenation 15 min” value came to 12.5 ± 5.1 mm Hg; the “Contracture, reoxygenation 30 min” value was determined as 2.5 ± 2.5 mm Hg. In addition, in assay [1], the activity at 10 µM was found to be 13.9 ± 5.3%, the activity at 1 µM is 55.4 ± 6.4%, the activity at 0.1 µM amounted to 70.4 ± 2.5% and the minimal effective concentration is not below 0.1 µM. In assay [4], this compound displayed an IC50 of 5000 nM. The IC50 in assay [2] stood at 90 nM.
For the compound `COc1ccc(CN2CCN(CC(O)COc3cc(C(C)(C)C)c(O)c(C(C)(C)C)c3)CC2)c(OC)c1OC` (stereo not drawn) [Example 5, 4-(2,3,4-trimethoxybenzyl)-l-[3-(4-hydroxy-3,5-di-tert.-butylphenoxy)-2-hydroxypropyl]piperazine], in assay [2], the IC50 came out at 900 nM.
In the case of `COc1ccc(CN2CCN(CC(O)CSc3cc(C(C)(C)C)c(O)c(C(C)(C)C)c3)CC2)c(OC)c1OC` (centres unmarked) [Example 6, 4-(2,3,4-trimethoxybenzyl)-I-[3-(4-hydroxy-3,5-di-tert.-butylphenylthio)-2-hydroxypropyl]piperazine], in assay [1], the activity at 10 µM is 8.3 ± 1.4%, the activity at 1 µM turned out to be 7.7 ± 0.1% and the activity at 0.1 µM was found to be 99.5 ± 7.5%. Moreover, in assay [4], the IC50 was 2700 nM. Moreover, the IC50 in assay [2] was 300 nM.
`COc1ccc(CN2CCN(CCCc3cc(C(C)(C)C)c(O)c(C(C)(C)C)c3)CC2)c(OC)c1OC` [Example 4, 4-(2,3,4-trimethoxybenzyl)-l-[3-(4-hydroxy-3,5-di-tert.-butylphenyl)propyl]piperazine]: in assay [1], the activity at 10 µM is 10.2 ± 3.1%, the activity at 1 µM amounted to 22.3 ± 6.5% and the activity at 0.1 µM was found to be 103 ± 12%. Besides, in assay [2], the IC50 stood at 2000 nM.
For `COc1ccc(CN2CCN(CCCCCOc3cc(C(C)(C)C)c(O)c(C(C)(C)C)c3)CC2)c(OC)c1OC` [Example 8, 4-(2,3,4-trimethoxybenzyl)-l-[5-(4-hydroxy-3,5-di-tert.-butylphenoxy)pentyl]piperazine] the same measures were 27.2 ± 2%, 21.6 ± 4.2%, 91.4 ± 3.1% and 1000 nM.
As for `COc1ccc(CN2CCN(CCC(C)(C)Sc3cc(C(C)(C)C)c(O)c(C(C)(C)C)c3)CC2)c(OC)c1OC` [Example 2, 4-(2,3,4-trimethoxybenzyl)-1-[3-(4-hydroxy-3,5-di-tert.-butylphenylthio)-3,3-dimethylpropyl]piperazine], the IC50 in assay [2] came out at 3000 nM.
`COc1ccc(CN2CCN(CCCOc3cc(C(C)(C)C)c(O)c(C(C)(C)C)c3)CC2)c(OC)c1OC` [Example 3, 4-(2,3,4-trimethoxybenzyl)-l-[3-(4-hydroxy-3,5-di-tert.-butylphenoxy)propyl]piperazine]: in assay [1], the activity at 10 µM turned out to be 37.6 ± 2.7%, the activity at 1 µM is 16.9 ± 1.1%, the activity at 0.1 µM came out at 72.6 ± 5.7% and the minimal effective concentration was not below 0.1 µM. For the same compound, the IC50 in assay [2] was determined as 500 nM.
As for `COc1ccc(CN2CCN(CCCSc3cc(C(C)(C)C)c(O)c(C(C)(C)C)c3)CC2)c(OC)c1OC` [Example 7, 4-(2,3,4-trimethoxybenzyl)-I-[3-(4-hydroxy-3,5-di-tert.-butylphenylthio)propyl]piperazine], in assay [1], the activity at 10 µM was found to be 27.9 ± 3.4%, the activity at 1 µM is 19.3 ± 0.9% and the activity at 0.1 µM is 85.9 ± 1.7%. The IC50 in assay [2] worked out at 600 nM.
